Tested on: PC3 human prostate cancer cells
Test: Ribosome profiling: translational efficiency (ribosome footprint vs RNA-seq read density);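 also: Per-gene footprint-to-mRNA density ratio averaged per codon over the coding sequence, scaled so the median gene equals 1.0 after excluding regulated genes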
Format: cell-based
Conditions: for Rapamycin TrlEff: 3-hour treatment with rapamycin (50 nM) in PC3 cells
Description: Given the critical role for mTOR in prostate cancer, PC3 human prostate cancer cells, in which mTOR is constitutively hyperactivated, were used to delineate translationally controlled gene expression networks upon complete or partial mTOR inhibition. Ribosome profiling was optimized to assess quantitatively ribosome occupancy genome-wide in cancer cells.
Cells were subsequently treated with cycloheximide (100 μg ml^−1; Sigma) and detergent lysis was performed in the dish. The lysate was treated with DNase and clarified, and a sample was taken for RNA-seq analysis. Lysates were subjected to ribosome footprinting by nuclease treatment. Ribosome-protected fragments were purified, and deep sequencing libraries were generated from these fragments, as well as from poly(A) mRNA purified from non-nuclease-treated lysates. These libraries were analyzed by sequencing on an Illumina GAII.
Ribosome footprint and RNA-seq sequencing reads were aligned against a library of transcripts from the UCSC Known Genes database GRCh37/hg19. The first 25 nucleotides of each read were aligned using Bowtie and this initial alignment was then extended to encompass the full fragment-derived portion of the sequencing read while excluding the linker sequence. Read density profiles were then constructed for the canonical transcript of each gene, using only reads with 0 or 1 total mismatches between the read sequence and the reference sequence, comprised of the transcript fragment followed by the linker sequence. Footprint reads were assigned to an A site nucleotide at position +15 to +17 of the alignment, based on the total fragment length; mRNA reads were assigned to the first nucleotide of the alignment. The average read density per codon was then computed for the coding sequence of each transcript, excluding the first 15 and last 5 codons, which can display atypical ribosome accumulation.
Average read density was used as a measure of mRNA abundance (RNA-seq reads) and of protein synthesis (ribosome profiling reads). For most analyses, genes were filtered to require at least 256 reads in the relevant RNA-seq samples. Translational efficiency was computed as the ratio of ribosome footprint read density to RNA-seq read density, scaled to normalize the translational efficiency of the median gene to 1.0 after excluding regulated genes (log 2 fold-change+1.5 after normalizing for the all-gene median). Changes in protein synthesis, mRNA abundance and translational efficiency were similarly computed as the ratio of read densities between different samples, normalized to give the median gene a ratio of 1.0. This normalization corrects for differences in the absolute number of sequencing reads obtained for different libraries.

CO[C@H]1C[C@@H]2CC[C@@H](C)[C@@](O)(O2)C(=O)C(=O)N2CCCC[C@H]2C(=O)O[C@H]([C@H](C)C[C@@H]2CC[C@@H](O)[C@H](OC)C2)CC(=O)[C@H](C)/C=C(\C)[C@@H](O)[C@@H](OC)C(=O)[C@H](C)C[C@H](C)/C=C/C=C/C=C/1C [Rapamycin, rapamycin]
Rapamycin TrlEff (gene ACD): 2.06 | TrlEff (gene ACTG1): −0.07 | TrlEff (gene AGRN): 0.51 | TrlEff (gene AHCY): −0.23 | TrlEff (gene ALKBH7): 0.28 | TrlEff (gene AP2A1): −0.04 | TrlEff (gene ARD1A): 0.01 | TrlEff (gene ATP5G2): −0.28 | Rapamycin TrlEff (gene C17orf28): 1.66 | TrlEff (gene C21orf66): −0.09 | Rapamycin TrlEff (gene CCNA1): 1.81 | TrlEff (gene CCNI): −0.45 | TrlEff (gene CD44): −0.46 | TrlEff (gene CIRBP): 0.10 | TrlEff (gene CLPTM1): 0.26 | TrlEff (gene COL6A2): 0.43 | TrlEff (gene CRTAP): −1.17 | Rapamycin TrlEff (gene DDX51): 1.68 | Rapamycin TrlEff (gene DGCR2): 1.69 | TrlEff (gene ECSIT): 0.41 | Rapamycin TrlEff (gene EEF1A1): −1.57 | TrlEff (gene EEF1A2): −0.03 | TrlEff (gene EEF1D): −0.84 | TrlEff (gene EEF1G): −1.15 | TrlEff (gene EEF2): −1.12 | TrlEff (gene EIF3H): −0.79 | TrlEff (gene EIF3L): −0.85 | TrlEff (gene EIF4B): −1.21 | TrlEff (gene EVPL): 0.30 | TrlEff (gene FAM83H): 0.71 | TrlEff (gene FAM128B): 0.27 | TrlEff (gene FASN): 0.47 | TrlEff (gene GAPDH): −0.27 | TrlEff (gene GLTSCR2): −0.68 | TrlEff (gene GNB2L1): −0.77 | Rapamycin TrlEff (gene GTPBP3): 1.56 | TrlEff (gene HNRNPA1): −0.86 | TrlEff (gene HSPA8): −0.46 | TrlEff (gene IMPDH2): −0.39 | TrlEff (gene LAMA5): 0.87 | TrlEff (gene LMF2): 0.39 | Rapamycin TrlEff (gene MAPK6): −2.43 | Rapamycin TrlEff (gene MAPKAPK2): 1.50 | TrlEff (gene MTA1): −0.05 | TrlEff (gene NCLN): 0.67 | Rapamycin TrlEff (gene NFATC21P): 1.54 | Rapamycin TrlEff (gene NR2F1): 1.94 | TrlEff (gene PABPC1): −1.44 | TrlEff (gene PABPC4): −0.80 | TrlEff (gene PACS1): 0.04 | TrlEff (gene PFDN5): −0.51 | TrlEff (gene PGLS): 0.20 | TrlEff (gene PGM1): −0.55 | TrlEff (gene PNKP): 0.74 | Rapamycin TrlEff (gene PRKD3): −1.72 | TrlEff (gene PTGES2): 0.52 | TrlEff (gene RABGGTB): −0.84 | Rapamycin TrlEff (gene RBPJ): −1.58 | TrlEff (gene RPL3): −1.08 | TrlEff (gene RPL4): −0.85 | TrlEff (gene RPL7): −1.06 | TrlEff (gene RPL7A): −0.74 | TrlEff (gene RPL9): −1.00 | TrlEff (gene RPL10): −0.79 | TrlEff (gene RPL10A): −0.94 | TrlEff (gene RPL11): −1.08 | TrlEff (gene RPL12): −0.94 | TrlEff (gene RPL13): −0.38 | TrlEff (gene RPL15): −0.51 | TrlEff (gene RPL18A): −0.82 | TrlEff (gene RPL19): −0.66 | TrlEff (gene RPL22): −0.89 | TrlEff (gene RPL22L1): −0.68 | TrlEff (gene RPL24): −0.63 | TrlEff (gene RPL26): −1.11 | TrlEff (gene RPL27): −0.33 | TrlEff (gene RPL27A): −0.96 | Rapamycin TrlEff (gene RPL28): −1.59 | TrlEff (gene RPL30): −0.99 | TrlEff (gene RPL31): −0.62 | TrlEff (gene RPL32): −0.97 | TrlEff (gene RPL34): −1.12 | TrlEff (gene RPL36A): −1.11 | TrlEff (gene RPL37A): −1.02 | TrlEff (gene RPL39): −1.65 | Rapamycin TrlEff (gene RPL39): −2.11 | TrlEff (gene RPL41): −1.15 | TrlEff (gene RPLP0): −0.42 | TrlEff (gene RPLP2): −1.18 | TrlEff (gene RPS2): −0.56 | TrlEff (gene RPS3): −0.92 | TrlEff (gene RPS3A): −1.15 | TrlEff (gene RPS4X): −1.15 | TrlEff (gene RPS5): −0.77 | TrlEff (gene RPS7): −0.76 | TrlEff (gene RPS9): −0.60 | TrlEff (gene RPS12): −1.22 | TrlEff (gene RPS13): −0.82 | TrlEff (gene RPS14): −0.60 | TrlEff (gene RPS15): 0.03 | TrlEff (gene RPS15A): −0.96 | TrlEff (gene RPS19): −0.74 | TrlEff (gene RPS20): −1.35 | TrlEff (gene RPS21): −0.60 | TrlEff (gene RPS25): −0.89 | TrlEff (gene RPS27): −1.54 | Rapamycin TrlEff (gene RPS27): −1.55 | TrlEff (gene RPS27A): −0.89 | TrlEff (gene RPS28): −0.80 | Rapamycin TrlEff (gene SDCCAG10): −1.50 | TrlEff (gene SLC19A1): 0.23 | TrlEff (gene TKT): −0.11 | TrlEff (gene TPT1): −1.22 | TrlEff (gene TSC2): 0.34 | TrlEff (gene UBA52): −0.22 | Rapamycin TrlEff (gene UBTD2): −1.64 | Rapamycin TrlEff (gene UCHL5): −1.56 | Rapamycin TrlEff (gene VHL): 1.67 | TrlEff (gene VIM): −0.40 | TrlEff (gene YB1): −0.59

From patent publication US20190093170A1, “USE OF TRANSLATIONAL PROFILING TO IDENTIFY TARGET MOLECULES FOR THERAPEUTIC TREATMENT” (THE REGENTS OF THE UNIVERSITY OF CALIFORNIA, priority 2013, published 2019)
